Here are results for one molecule from ChEMBL document CHEMBL4373740, “Synthesis and biological evaluation of new MET inhibitors with 1,6-naphthyridinone scaffold” (Eur J Med Chem, 2020).

A value given as a limit tells only on which side of the number the result lay.

The target in data set [1] is Mitogen-activated protein kinase 14 (Homo sapiens) (UniProt Q16539). Description: Inhibition of recombinant full length human GST-tagged MAPK14 expressed in Escherichia coli at 1 uM using biotin as substrate preincubated for 5 mins followed by substrate addition and measured after 30 to 60 mins in presence of ATP by HTRF assay relative to control.
Chain of Mitogen-activated protein kinase 14 (Homo sapiens) (Q16539 whole entry): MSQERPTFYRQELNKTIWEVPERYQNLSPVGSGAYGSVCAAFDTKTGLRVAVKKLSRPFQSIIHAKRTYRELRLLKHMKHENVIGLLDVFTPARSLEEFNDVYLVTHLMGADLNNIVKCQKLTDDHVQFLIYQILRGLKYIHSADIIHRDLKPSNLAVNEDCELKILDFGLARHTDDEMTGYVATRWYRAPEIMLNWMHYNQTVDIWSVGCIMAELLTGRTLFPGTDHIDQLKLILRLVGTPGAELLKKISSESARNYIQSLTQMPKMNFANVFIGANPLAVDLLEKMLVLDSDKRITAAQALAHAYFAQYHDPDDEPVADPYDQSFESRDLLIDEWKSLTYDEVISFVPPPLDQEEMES
In data set [2] the target is Serine/threonine-protein kinase pim-1 (Homo sapiens) (UniProt P11309). As to the kind of experiment: Inhibition of recombinant full length human His-tagged PIM1 expressed in baculovirus expression system at 1 uM using biotin as substrate preincubated for 5 mins followed by substrate addition and measured after 30 to 60 mins in presence of ATP by HTRF assay relative to control.

The target of data set [3] is Macrophage-stimulating protein receptor (Homo sapiens, UniProt Q04912). As to the kind of experiment: Inhibition of recombinant human GST-tagged RON expressed in baculovirus system at 1 uM using biotin as substrate preincubated for 5 mins followed by substrate addition and measured after 30 to 60 mins in presence of ATP by HTRF assay relative to control.
Chain of Macrophage-stimulating protein receptor (Q04912 25-304 limits assumed): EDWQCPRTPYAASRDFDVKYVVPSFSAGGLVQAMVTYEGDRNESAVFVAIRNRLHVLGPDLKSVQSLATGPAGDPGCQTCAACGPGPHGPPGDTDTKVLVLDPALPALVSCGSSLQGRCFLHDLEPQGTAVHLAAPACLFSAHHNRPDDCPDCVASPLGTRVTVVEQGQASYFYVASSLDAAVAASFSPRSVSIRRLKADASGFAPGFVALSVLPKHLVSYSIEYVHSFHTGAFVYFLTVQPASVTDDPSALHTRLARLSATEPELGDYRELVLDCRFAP
Chain of Macrophage-stimulating protein receptor (Q04912 310-1400 limits assumed): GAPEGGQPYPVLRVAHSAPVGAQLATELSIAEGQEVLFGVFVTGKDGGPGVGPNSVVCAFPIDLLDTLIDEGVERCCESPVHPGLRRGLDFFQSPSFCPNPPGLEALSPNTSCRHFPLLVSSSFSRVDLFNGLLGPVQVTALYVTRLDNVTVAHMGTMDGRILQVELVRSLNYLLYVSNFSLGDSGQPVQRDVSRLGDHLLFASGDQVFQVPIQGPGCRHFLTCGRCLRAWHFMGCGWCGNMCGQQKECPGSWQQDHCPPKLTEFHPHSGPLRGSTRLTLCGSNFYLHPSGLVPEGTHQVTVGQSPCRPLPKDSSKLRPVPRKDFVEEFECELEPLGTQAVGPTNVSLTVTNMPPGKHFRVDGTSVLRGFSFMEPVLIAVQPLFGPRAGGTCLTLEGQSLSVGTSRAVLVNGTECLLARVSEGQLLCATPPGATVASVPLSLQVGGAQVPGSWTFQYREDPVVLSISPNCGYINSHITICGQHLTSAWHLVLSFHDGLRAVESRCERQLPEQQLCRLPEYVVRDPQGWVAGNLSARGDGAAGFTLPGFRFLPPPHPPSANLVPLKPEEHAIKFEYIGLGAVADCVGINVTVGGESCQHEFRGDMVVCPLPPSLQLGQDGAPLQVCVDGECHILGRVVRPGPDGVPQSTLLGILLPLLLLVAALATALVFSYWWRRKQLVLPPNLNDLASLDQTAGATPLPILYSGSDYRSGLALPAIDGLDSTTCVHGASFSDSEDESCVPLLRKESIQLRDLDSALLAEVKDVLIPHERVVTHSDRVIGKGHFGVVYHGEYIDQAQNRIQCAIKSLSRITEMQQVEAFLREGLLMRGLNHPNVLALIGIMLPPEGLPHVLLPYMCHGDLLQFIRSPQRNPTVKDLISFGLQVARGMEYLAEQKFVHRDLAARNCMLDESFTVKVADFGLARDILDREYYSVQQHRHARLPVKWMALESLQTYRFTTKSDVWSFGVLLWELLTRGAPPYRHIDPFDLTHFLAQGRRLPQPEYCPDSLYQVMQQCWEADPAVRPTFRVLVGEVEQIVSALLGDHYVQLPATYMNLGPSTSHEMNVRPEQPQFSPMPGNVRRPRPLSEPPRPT
A short description of data set [4]: Volume of distribution in Sprague-Dawley rat at 1.0 mg/kg, iv measured for 5 min to 72 hrs by LC-MS/MS analysis. In kind it is ADME, organism-based. The following applies: in vivo.
In data set [5] the target is Proto-oncogene tyrosine-protein kinase Src (Homo sapiens) (UniProt P12931). Description: Inhibition of recombinant full length human untagged SRC expressed in baculovirus expression system at 1 uM using biotin as substrate preincubated for 5 mins followed by substrate addition and measured after 30 to 60 mins in presence of ATP by HTRF assay relative to control.
Chain of Proto-oncogene tyrosine-protein kinase Src (Homo sapiens) (P12931 2-536 limits assumed): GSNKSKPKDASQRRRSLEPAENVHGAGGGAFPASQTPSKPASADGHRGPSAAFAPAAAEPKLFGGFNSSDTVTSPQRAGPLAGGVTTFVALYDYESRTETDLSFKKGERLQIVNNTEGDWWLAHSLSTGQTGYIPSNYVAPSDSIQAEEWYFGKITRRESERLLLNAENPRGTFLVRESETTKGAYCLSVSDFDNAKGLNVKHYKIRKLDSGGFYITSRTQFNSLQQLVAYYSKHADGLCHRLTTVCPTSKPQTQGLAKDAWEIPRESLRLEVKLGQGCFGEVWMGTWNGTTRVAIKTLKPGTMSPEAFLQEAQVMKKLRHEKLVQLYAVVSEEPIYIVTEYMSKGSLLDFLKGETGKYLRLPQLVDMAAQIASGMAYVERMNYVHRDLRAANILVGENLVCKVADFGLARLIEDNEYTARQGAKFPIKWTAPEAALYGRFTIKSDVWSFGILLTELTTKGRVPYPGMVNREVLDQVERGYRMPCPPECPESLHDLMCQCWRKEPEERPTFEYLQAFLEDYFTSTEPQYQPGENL
Data set [6] in a line: Tmax in Sprague-Dawley rat at 5.0 mg/kg, ig measured for 15 min to 72 hrs by LC-MS/MS analysis. In kind it is ADME, organism-based. As to conditions: in vivo, po.
Data set [7] deals with Tyrosine-protein kinase receptor TYRO3 (Homo sapiens) (UniProt Q06418). As to the kind of experiment: Inhibition of recombinant human GST-tagged RSE catalytic domain (451 to 890 residues) expressed in baculovirus expression system at 1 uM using biotin as substrate preincubated for 5 mins followed by substrate addition and measured after 30 to 60 mins in presence of ATP by HTRF assay relative to control.
Chain of Tyrosine-protein kinase receptor TYRO3 (Homo sapiens) (Q06418 whole entry, the tested form may be a part): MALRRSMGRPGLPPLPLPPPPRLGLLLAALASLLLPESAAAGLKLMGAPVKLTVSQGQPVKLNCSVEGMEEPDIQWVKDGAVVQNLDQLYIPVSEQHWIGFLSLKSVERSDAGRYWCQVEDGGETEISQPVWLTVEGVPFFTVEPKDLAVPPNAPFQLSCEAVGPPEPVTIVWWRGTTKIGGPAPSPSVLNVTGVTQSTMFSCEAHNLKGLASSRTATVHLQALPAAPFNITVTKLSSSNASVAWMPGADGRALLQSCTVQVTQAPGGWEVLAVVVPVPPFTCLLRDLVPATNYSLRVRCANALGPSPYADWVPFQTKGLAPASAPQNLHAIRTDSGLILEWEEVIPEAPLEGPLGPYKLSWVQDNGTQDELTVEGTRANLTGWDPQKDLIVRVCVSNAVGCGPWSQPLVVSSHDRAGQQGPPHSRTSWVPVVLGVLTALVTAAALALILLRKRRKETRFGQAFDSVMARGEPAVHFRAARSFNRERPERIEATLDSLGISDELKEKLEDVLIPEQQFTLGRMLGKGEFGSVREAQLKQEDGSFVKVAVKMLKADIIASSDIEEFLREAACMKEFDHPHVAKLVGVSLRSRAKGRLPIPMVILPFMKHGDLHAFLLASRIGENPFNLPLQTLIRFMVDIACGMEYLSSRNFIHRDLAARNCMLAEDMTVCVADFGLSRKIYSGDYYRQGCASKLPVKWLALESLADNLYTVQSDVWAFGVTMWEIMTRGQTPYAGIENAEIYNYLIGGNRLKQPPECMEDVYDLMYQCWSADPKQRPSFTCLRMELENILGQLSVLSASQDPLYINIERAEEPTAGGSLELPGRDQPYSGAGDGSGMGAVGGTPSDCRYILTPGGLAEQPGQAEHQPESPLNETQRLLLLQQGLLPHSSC

For data set [8], the target named is Macrophage colony-stimulating factor 1 receptor (Homo sapiens) (UniProt P07333). As to the kind of experiment: Inhibition of recombinant full length human His-tagged CSF1R expressed in baculovirus expression system at 1 uM using biotin as substrate preincubated for 5 mins followed by substrate addition and measured after 30 to 60 mins in presence of ATP by HTRF assay relative to control.
Chain of Macrophage colony-stimulating factor 1 receptor (Homo sapiens) (P07333 whole entry): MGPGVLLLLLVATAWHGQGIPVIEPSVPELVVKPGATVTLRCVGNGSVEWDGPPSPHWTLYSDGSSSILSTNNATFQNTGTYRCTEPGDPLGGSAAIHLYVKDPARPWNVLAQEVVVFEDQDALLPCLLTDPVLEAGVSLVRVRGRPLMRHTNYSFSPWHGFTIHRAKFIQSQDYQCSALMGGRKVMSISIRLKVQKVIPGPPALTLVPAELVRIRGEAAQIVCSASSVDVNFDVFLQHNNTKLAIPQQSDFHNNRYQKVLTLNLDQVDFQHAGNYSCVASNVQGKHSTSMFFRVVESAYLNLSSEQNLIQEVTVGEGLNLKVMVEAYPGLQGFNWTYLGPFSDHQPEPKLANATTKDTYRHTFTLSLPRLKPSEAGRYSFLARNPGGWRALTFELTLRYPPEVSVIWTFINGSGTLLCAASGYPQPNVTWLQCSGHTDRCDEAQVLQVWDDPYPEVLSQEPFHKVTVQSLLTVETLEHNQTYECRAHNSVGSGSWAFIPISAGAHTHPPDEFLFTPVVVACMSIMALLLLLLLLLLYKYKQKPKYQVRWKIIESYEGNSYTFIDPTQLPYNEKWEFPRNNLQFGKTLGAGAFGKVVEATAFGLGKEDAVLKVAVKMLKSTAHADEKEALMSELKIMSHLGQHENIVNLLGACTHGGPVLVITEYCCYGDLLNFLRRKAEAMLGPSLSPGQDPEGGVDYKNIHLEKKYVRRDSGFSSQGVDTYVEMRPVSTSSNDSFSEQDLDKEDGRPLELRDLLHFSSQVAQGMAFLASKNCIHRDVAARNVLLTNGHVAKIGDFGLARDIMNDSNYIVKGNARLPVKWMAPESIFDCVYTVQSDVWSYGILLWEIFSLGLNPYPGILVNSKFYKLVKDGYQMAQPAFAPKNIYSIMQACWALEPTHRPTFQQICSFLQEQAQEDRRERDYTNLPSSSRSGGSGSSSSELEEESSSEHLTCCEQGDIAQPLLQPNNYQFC

The target of data set [9] is Tyrosine-protein kinase receptor UFO (Homo sapiens) (UniProt P30530). As to the kind of experiment: Inhibition of recombinant […] human N-terminal GST-tagged AXL (473 to end residues) expressed in baculovirus infected Sf21 insect cells at 1 uM using biotin as substrate preincubated for 5 mins followed by substrate addition and measured after 30 to 60 mins in presence of ATP by HTRF assay relative to control.
Chain of Tyrosine-protein kinase receptor UFO (Homo sapiens) (P30530 whole entry): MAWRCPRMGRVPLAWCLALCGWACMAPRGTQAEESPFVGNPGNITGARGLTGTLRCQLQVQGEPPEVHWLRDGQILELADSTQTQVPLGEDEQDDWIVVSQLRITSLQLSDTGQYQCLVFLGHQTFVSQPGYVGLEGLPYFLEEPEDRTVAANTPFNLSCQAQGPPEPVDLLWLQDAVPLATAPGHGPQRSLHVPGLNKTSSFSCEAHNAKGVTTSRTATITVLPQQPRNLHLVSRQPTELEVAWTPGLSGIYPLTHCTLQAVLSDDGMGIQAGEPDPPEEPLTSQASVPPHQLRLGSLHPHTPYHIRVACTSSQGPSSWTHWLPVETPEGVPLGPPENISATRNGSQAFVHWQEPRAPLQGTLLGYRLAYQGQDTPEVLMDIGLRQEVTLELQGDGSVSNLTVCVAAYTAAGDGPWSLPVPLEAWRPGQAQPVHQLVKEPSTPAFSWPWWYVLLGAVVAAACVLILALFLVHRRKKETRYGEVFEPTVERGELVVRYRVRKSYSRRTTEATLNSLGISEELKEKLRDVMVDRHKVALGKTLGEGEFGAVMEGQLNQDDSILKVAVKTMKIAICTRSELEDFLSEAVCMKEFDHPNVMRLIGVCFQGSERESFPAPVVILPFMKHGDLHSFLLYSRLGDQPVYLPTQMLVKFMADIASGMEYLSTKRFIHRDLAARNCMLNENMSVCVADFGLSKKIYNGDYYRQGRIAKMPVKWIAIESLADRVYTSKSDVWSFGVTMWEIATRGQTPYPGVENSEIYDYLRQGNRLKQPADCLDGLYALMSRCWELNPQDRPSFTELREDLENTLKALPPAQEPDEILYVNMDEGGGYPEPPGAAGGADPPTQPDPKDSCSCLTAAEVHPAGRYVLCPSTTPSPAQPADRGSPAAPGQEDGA

Data set [10] addresses Tyrosine-protein kinase JAK1 (Homo sapiens) (UniProt P23458). Description: Inhibition of recombinant full length human GST-tagged JAK1 expressed in baculovirus expression system at 1 uM using biotin as substrate preincubated for 5 mins followed by substrate addition and measured after 30 to 60 mins in presence of ATP by HTRF assay relative to control.
A short description of data set [11]: Mean residence time in Sprague-Dawley rat at 1.0 mg/kg, iv measured for 5 min to 72 hrs by LC-MS/MS analysis. As to conditions: in vivo. In kind it is ADME, organism-based.

For `Cn1cc(-c2ccc(F)cc2)c(=O)c2c(Nc3ccc(Oc4ccnc(NC(=O)C5CC5)c4)c(F)c3)nccc21`, the inhibition in [1] was less than 50%; in [2], less than 50%; in data set [3], 50 to 79%; in [5], less than 50%; in data set [7] it was greater than 80%; in data set [8], less than 50%. For the same molecule, the inhibition is greater than 80% in [9] and less than 50% in data set [10]. The Vd in data set [4] amounted to 0.4 L/kg. In addition, the Tmax in data set [6] came out at 8.7 h. In data set [11], this molecule returned an MRT of 10.8 h.
